{"source": "patent US20150313903A1", "about": "“METHODS OF TREATING COGNITIVE IMPAIRMENT ASSOCIATED WITH NEURODEGENERATIVE DISORDERS” (Ovid Therapeutics Inc., priority 2014, published 2015)", "origin": "cited, not measured here", "key": {"[1]": {"settings": "in vivo"}, "[2]": {"settings": "in vivo", "remark": "listed apart in the source"}, "[3]": {"settings": "generalized anxiety disorders, versus control subjects"}, "[4]": {"settings": "subjects taking ritanserin"}, "serotonin-S2 receptor": {"target": "serotonin-S2 receptor (Rattus norvegicus, UniProt P14842)", "sequence (P14842 whole entry)": "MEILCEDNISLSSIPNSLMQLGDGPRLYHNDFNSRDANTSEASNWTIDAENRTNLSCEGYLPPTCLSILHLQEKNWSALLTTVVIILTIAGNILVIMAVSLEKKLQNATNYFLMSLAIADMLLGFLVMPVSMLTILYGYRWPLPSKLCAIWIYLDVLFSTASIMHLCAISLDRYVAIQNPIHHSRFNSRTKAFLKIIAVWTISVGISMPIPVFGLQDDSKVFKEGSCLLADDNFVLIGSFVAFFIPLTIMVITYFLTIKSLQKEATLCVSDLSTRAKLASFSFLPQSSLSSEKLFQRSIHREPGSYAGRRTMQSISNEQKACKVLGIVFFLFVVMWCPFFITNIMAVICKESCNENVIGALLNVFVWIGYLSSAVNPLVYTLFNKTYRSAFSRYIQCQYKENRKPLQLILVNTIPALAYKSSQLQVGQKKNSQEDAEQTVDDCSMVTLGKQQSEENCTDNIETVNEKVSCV", "settings": "in vivo; dose as low as"}, "dopamine transporter": {"target": "T1, dopamine transporter (Homo sapiens, UniProt Q01959)", "T1 construct": "host or cells: prefrontal cortex", "T1 sequence (Q01959 whole entry)": "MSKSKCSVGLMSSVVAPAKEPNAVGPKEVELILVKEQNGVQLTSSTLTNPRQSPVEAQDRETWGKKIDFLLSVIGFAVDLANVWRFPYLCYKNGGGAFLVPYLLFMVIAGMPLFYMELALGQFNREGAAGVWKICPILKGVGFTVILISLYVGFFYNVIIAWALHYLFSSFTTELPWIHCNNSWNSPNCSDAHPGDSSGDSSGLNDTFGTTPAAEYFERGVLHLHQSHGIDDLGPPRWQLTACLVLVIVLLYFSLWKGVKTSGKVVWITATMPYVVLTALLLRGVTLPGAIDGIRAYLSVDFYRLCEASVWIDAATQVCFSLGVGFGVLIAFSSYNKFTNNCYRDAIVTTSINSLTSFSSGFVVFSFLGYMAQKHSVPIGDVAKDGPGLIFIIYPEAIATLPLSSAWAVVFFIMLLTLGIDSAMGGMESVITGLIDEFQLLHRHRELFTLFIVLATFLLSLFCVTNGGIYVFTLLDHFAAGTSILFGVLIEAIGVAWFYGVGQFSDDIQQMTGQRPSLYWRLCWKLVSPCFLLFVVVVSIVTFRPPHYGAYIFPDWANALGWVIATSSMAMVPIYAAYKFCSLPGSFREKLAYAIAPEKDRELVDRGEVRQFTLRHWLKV", "settings": "within the prefrontal cortex (PFC)"}, "[5]": {"settings": "alcoholics"}, "[6]": {"settings": "in vivo", "remark": "listed apart in the source"}, "[7]": {"settings": "classical conditioning model"}, "[8]": {"experiment": "not given", "remark": "listed apart in the source"}, "[9]": {"settings": "MPTP model of parkinsonism in mice"}, "[10]": {"settings": "direct injection into the hippocampus, rats"}, "[11]": {"settings": "several trials, monotherapy"}, "BDNF": {"test_system": "BDNF", "settings": "in vivo"}, "[12]": {"design": "key: *: shown to have a beneficial effect in ALS", "settings": "in vivo"}, "[13]": {"settings": "acute dose 10 mg, healthy volunteers"}, "[14]": {"settings": "Parkinson's patients, later studies"}, "[15]": {"settings": "open pilot trial, parkinsonian patients"}}, "note": "Where two headings read alike, the source gives them in different places."}
{"smiles": "CC(C)COc1ccc(CNC(=O)N(Cc2ccc(F)cc2)C2CCN(C)CC2)cc1", "note": "[Pimavanserin]", "values": [{"measurement": "reversing PCP-induced deficits", "setting": "[1]", "value": "no activity"}, {"measurement": "efficacy in psychosis associated with Parkinson's disease", "setting": "[2]", "value": "effective"}]}
{"smiles": "Cc1nc2sccn2c(=O)c1CCN1CCC(=C(c2ccc(F)cc2)c2ccc(F)cc2)CC1", "note": "[ritanserin, 6-[2-[4-[bis(4-fluorophenyl)methylene]-1-piperidinyl]ethyl]-7-methyl-5H-thiazolo[3,2-a]pyrimidin-5-one]", "values": [{"measurement": "self-rating of treated subjects", "setting": "[3]", "value": "calmer, more relaxed, and more energetic than control subjects"}, {"measurement": "weight gain", "setting": "[4]", "value": "Weight gain is not observed"}, {"measurement": "dose giving 50% serotonin-S2 receptor occupation", "setting": "serotonin-S2 receptor", "value": 0.08, "unit": "m/kg"}, {"measurement": "inhibition of the dopamine transporter", "setting": "dopamine transporter", "value": "selectively inhibit the dopamine transporter"}, {"measurement": "outcome of Phase 3 trial for alcohol abstinence", "setting": "[5]", "value": "failed a Phase 3 trial"}, {"measurement": "blocking the physiological effects of LSD", "setting": "[6]", "value": "some activity"}, {"measurement": "effect on learning", "setting": "[7]", "value": "impair learning"}, {"measurement": "effect on REM sleep", "setting": "[13]", "value": "decreased REM sleep"}, {"measurement": "effect on Stage 2 sleep", "setting": "[13]", "value": "decreased Stage 2 sleep"}, {"measurement": "effect on slow-wave sleep", "setting": "[13]", "value": "increased slow-wave sleep"}, {"measurement": "increase in SWS during the night, on average", "setting": "administered just before bedtime", "value": "about 52 minutes"}, {"measurement": "psychomotor sedation during the day", "setting": "after morning administration", "value": "no psychomotor sedation"}, {"measurement": "tolerance to the sleep-enhancing effects", "setting": "after repeated administration", "value": "no tolerance"}, {"measurement": "SWS duration", "setting": "at clinical doses", "value": "can double SWS duration"}, {"measurement": "average increase in slow-wave sleep", "setting": "dose 1 mg", "value": 53, "unit": "min"}, {"measurement": "average increase in slow-wave sleep", "setting": "dose 3 mg", "value": 82, "unit": "min"}, {"measurement": "average increase in slow-wave sleep", "setting": "dose 10 mg", "value": 101, "unit": "min"}, {"measurement": "average increase in slow-wave sleep", "setting": "dose 30 mg", "value": 136.5, "unit": "min"}, {"measurement": "increase in SWS during the night, on average", "setting": "morning administration", "value": "about 94 minutes"}, {"measurement": "bradykinesia", "setting": "[8]; [14]", "value": "reduced bradykinesia"}, {"measurement": "gait", "setting": "[8]; [14]", "value": "improved gait"}, {"measurement": "L-Dopa-induced dyskinesia", "setting": "[8]; [15]", "value": "reduced L-Dopa-induced dyskinesia"}, {"measurement": "tremor, rigidity, or akinesia", "setting": "[8]; [15]", "value": "no significant modifying"}, {"measurement": "motor deficit", "setting": "[9]", "value": "reduced motor deficit"}, {"measurement": "effect on learning", "setting": "[10]", "value": "inhibit learning"}, {"measurement": "efficacy in schizophrenia", "setting": "[11]", "value": "did show efficacy"}, {"measurement": "expression of brain (hippocampal) BDNF", "setting": "BDNF", "value": "increases the expression"}]}
{"smiles": "Nc1nc2ccc(OC(F)(F)F)cc2s1", "note": "[Riluzole, 2-amino-6-(trifluoromethoxy) benzothiazole]", "values": [{"measurement": "beneficial effect in ALS (asterisk mark)", "setting": "[12]", "value": "*Riluzole"}]}
